According to patent US10472341B2, “Bicyclic tetrahydrothiazepine derivatives useful for the treatment of neoplastic and/or infectious diseases” (APEIRON BIOLOGICS AG, priority 2015, dated 2019):
Counter-ions that a name gives are not always drawn.

Legend:
human CD19+ B-cells = test: Cytokine production in IgM-stimulated isolated human CD19+ B-cells; assay type: cell-based; conditions: for EC50: Homo sapiens, B-cell
Description: Buffy coats were obtained from a local hospital, diluted 3 fold with PBS and layered onto an isotonic Ficoll separating solution d=1.077 g/mL in 50 mL centrifuge tubes. The tubes were centrifuged at 914 g for 25 min at room temperature with the brakes off. The PBMC layer was removed and washed twice with ice-cold PBS. Erythrocytes were lysed by addition of ddH2O and cells were resuspended in X-Vivo15 (Lonza). CD19+ B cells were isolated from PBMCs by negative selection with the aid MACs kits (Miltenyi), according to manufacturer's instructions. Purified fractions were >95% CD19-positive as judged by antibody staining and assessment by cytometry. B-cells were stimulated by adding varying concentrations of human IgM (1.25-20 μg/mL goat F (ab′) 2 anti human IgM-LE/AF, Biozol) in the presence of example 1. Cells were incubated for 18 h at 37° C., 5% CO2. Assay plates were centrifuged at 400 g for 5 min and supernatants harvested. Cytokine concentration in tissue culture supernatants were determined with MSD or HTRF kits (MSD and Cisbio), according to manufacturer's instructions.

CD4 T cells = test: TCR-mediated activation of isolated CFSE-labeled CD4 T cells (anti-CD3/anti-CD28): cytokines, proliferation, CD25; assay type: cell-based, human; conditions: for CD25 expression [% positive cells] Average / Cell Proliferation [Cell divisions/cell] Average / IFN-gamma production [ng/ml] Average / IL-2 production [ng/ml] Average / TNF-alpha production [ng/ml] Average: anti-CD3/anti-CD28
Description: • Buffy coat content was transferred to sterile plastic bottle and filled up to 480 ml with PBS, and distributed equally to 16×50 ml tubes (30 ml/tube) • Underlayed with ˜11 ml Lymphoprep and centrifuged 20 min (2200 rpm) • The interphase containing lymphocytes was taken off with transfer pipette, cells were washed twice with PBS and pooled to one tube to determine cell count (Coulter Diff ACT) Isolation of Immune Cell Subfractions from PBMCs by MACS • PBMCs were resuspended in MACS buffer (80 μl MACS-buffer/10^7 cells) and cells were isolated with Auto-MACS device using respective kits following manufacturer's recommendations TCR Stimulation and Measurement of T Cell Activation
Isolated T cells were plated in Xvivo medium at 1.5*10 ^5 cells per in 96 well culture plates and TCR-stimulated with anti-CD3/28 mAbs in the presence of compound as indicated. Cytokine production was determined at 24 h or 48 h following TCR stimulation in cell culture supernatants using commercially available ELISA kits (BD and eBioscience) as recommended by the manufacturer. T cell proliferation and CD25 expression (CD25-PC5 reagent purchased from Beckman Coulter) was determined by flow cytometry (Beckman-Coulter FC500) and analysed with Kaluza Software. For measurement of CD69 expression, isolated CD4 and CD8 T cells were plated in Xvivo medium at […] per in 96 well culture plates and TCR-stimulated with anti-CD3/28 mAbs in the presence of compound. CD69 expression was determined at 24 h following TCR stimulation by flow cytometry (CD4eF450, CD8APCeF780 and CD69-PC7 reagent purchased from eBioscience) and analysed with Kaluza Software.
Isolated CD4 T cells were CFSE-labeled and stimulated with anti-CD3 and anti-CD28 antibodies.

NK cells = test: NK cell stimulation by IL-2: IFN-gamma and TNF-alpha release; assay type: cell-based, human; conditions: for IFN-gamma / TNF-alpha: IL-2 stimulation
Description: Isolated NK cells were plated in Xvivo medium at 1.5*10^5 cells per in 96 well culture plates and stimulated with 50 ng/ml IL-2 (Aldesleukin) where indicated. Cytokine secretion was determined by ELISA, immune cell activation by flow cytometry (Beckman-Coulter Abs CD25-PC5, CD69-PC7 and acquisition on Beckman-Coulter Gallios) using 7-AAD exclusion as criterion for living cells. IL-2 is a key factor for survival, proliferation and activation of NK cells, thus linking adaptive immunity mediated by T cells with the innate immunity mediated by NK cells. Especially CD8 T cells release IL-2 locally at the site of antigen-encounter in the tumor, and thus support and activate NK cell anti-tumor functions. Compound example 67 has been chosen as an example. […] Thus, compounds have a unique potential to support the interlinked anti-tumor immunity of T and NK cells in the physiological context in vivo.

Which results are given for `N[C@H]1CS(=O)(=O)c2cc(F)c(C(=O)NC3CC3(F)F)cc2N(Cc2ccc(Cl)cc2)C1=O` (stereo partly drawn) [Example 1, (3R)-3-amino-5-[(4-chlorophenyl)methyl]-N-(2,2-difluorocyclopropyl)-8-fluoro-1,1,4-trioxo-2,3,4,5-tetrahydro-1λ^6,5-benzothiazepine-7-carboxamide hydrochloride]?
EC50 (human CD19+ B-cells; IL-6, IgM 1.25 μg/mL): 2.45 µM; EC50 (human CD19+ B-cells; IL-6, IgM 5 μg/mL): 4.68 µM; EC50 (human CD19+ B-cells; IL-6, IgM 20 μg/mL): 3.24 µM; EC50 (human CD19+ B-cells; TNF-α, IgM 1.25 μg/mL): 3.31 µM; EC50 (human CD19+ B-cells; TNF-α, IgM 5 μg/mL): 4.47 µM; EC50 (human CD19+ B-cells; TNF-α, IgM 20 μg/mL): 2.95 µM; Fold Diff Mean (human CD19+ B-cells; IL-6, IgM 1.25 μg/mL): 1.61; Fold Diff Mean (human CD19+ B-cells; IL-6, IgM 5 μg/mL): 1.92; Fold Diff Mean (human CD19+ B-cells; IL-6, IgM 20 μg/mL): 1.92; Fold Diff Mean (human CD19+ B-cells; TNF-α, IgM 1.25 μg/mL): 1.64; Fold Diff Mean (human CD19+ B-cells; TNF-α, IgM 5 μg/mL): 2.08; Fold Diff Mean (human CD19+ B-cells; TNF-α, IgM 20 μg/mL): 1.87

For `CCCCNC(=O)c1ccc2c(c1)N(Cc1ccc(OC(F)(F)F)cc1)C(=O)[C@@H](N)CS2(=O)=O.Cl` [Example 67, (3R)-3-amino-N-butyl-1,1,4-trioxo-5-{[4-(trifluoromethoxy)phenyl]methyl}-2,3,4,5-tetrahydro-1λ^6,5-benzothiazepine-7-carboxamide hydrochloride], which “CD25 expression [% positive cells] Average” value (CD4 T cells; 0.05 μM) is on record?
Its value is 47.88 % positive cells.

And the “Cell Proliferation [Cell divisions/cell] Average” value (CD4 T cells; 0.05 μM)?
The value was 0.49 Cell divisions/cell.

What about the “IFN-gamma production [ng/ml] Average” value (CD4 T cells; 0.05 μM) of the same compound?
Its value is 0.06 ng/mL.

And the “IL-2 production [ng/ml] Average” value (CD4 T cells; 0.05 μM)?
Its value is 0.13 ng/mL.

What about the “TNF-alpha production [ng/ml] Average” value (CD4 T cells; 0.05 μM) of the same compound?
The value was 0.26 ng/mL.

What about the “CD25 expression [% positive cells] Average” value (CD4 T cells; 0.1 μM) of the same compound?
The value was 50.80 % positive cells.

And the “Cell Proliferation [Cell divisions/cell] Average” value (CD4 T cells; 0.1 μM)?
The value was 0.58 Cell divisions/cell.

What about the “IFN-gamma production [ng/ml] Average” value (CD4 T cells; 0.1 μM) of the same compound?
The value was 0.10 ng/mL.

What about the “IL-2 production [ng/ml] Average” value (CD4 T cells; 0.1 μM) of the same compound?
The value was 0.21 ng/mL.

What about the “TNF-alpha production [ng/ml] Average” value (CD4 T cells; 0.1 μM) of the same compound?
The value was 0.42 ng/mL.

What about the “CD25 expression [% positive cells] Average” value (CD4 T cells; 0.25 μM) of the same compound?
The value was 59.10 % positive cells.

And the “Cell Proliferation [Cell divisions/cell] Average” value (CD4 T cells; 0.25 μM)?
Its value is 0.84 Cell divisions/cell.

And the “IFN-gamma production [ng/ml] Average” value (CD4 T cells; 0.25 μM)?
The value was 0.23 ng/mL.

And the “IL-2 production [ng/ml] Average” value (CD4 T cells; 0.25 μM)?
The value was 0.56 ng/mL.

What about the “TNF-alpha production [ng/ml] Average” value (CD4 T cells; 0.25 μM) of the same compound?
Its value is 0.71 ng/mL.

What about the “CD25 expression [% positive cells] Average” value (CD4 T cells; 0.5 μM) of the same compound?
Its value is 69.50 % positive cells.

And the “Cell Proliferation [Cell divisions/cell] Average” value (CD4 T cells; 0.5 μM)?
The value was 1.03 Cell divisions/cell.

And the “IFN-gamma production [ng/ml] Average” value (CD4 T cells; 0.5 μM)?
Its value is 0.40 ng/mL.

And the “IL-2 production [ng/ml] Average” value (CD4 T cells; 0.5 μM)?
The value was 1.00 ng/mL.

And the “TNF-alpha production [ng/ml] Average” value (CD4 T cells; 0.5 μM)?
Its value is 1.12 ng/mL.

What about the “CD25 expression [% positive cells] Average” value (CD4 T cells; 1 μM) of the same compound?
Its value is 79.50 % positive cells.

What about the “Cell Proliferation [Cell divisions/cell] Average” value (CD4 T cells; 1 μM) of the same compound?
Its value is 1.20 Cell divisions/cell.

What about the “IFN-gamma production [ng/ml] Average” value (CD4 T cells; 1 μM) of the same compound?
Its value is 0.64 ng/mL.

And the “IL-2 production [ng/ml] Average” value (CD4 T cells; 1 μM)?
The value was 2.50 ng/mL.

And the “TNF-alpha production [ng/ml] Average” value (CD4 T cells; 1 μM)?
Its value is 1.65 ng/mL.

What about the “CD25 expression [% positive cells] Average” value (CD4 T cells; 2.5 μM) of the same compound?
The value was 77.71 % positive cells.

What about the “Cell Proliferation [Cell divisions/cell] Average” value (CD4 T cells; 2.5 μM) of the same compound?
Its value is 1.35 Cell divisions/cell.

And the “IFN-gamma production [ng/ml] Average” value (CD4 T cells; 2.5 μM)?
Its value is 1.46 ng/mL.

And the “IL-2 production [ng/ml] Average” value (CD4 T cells; 2.5 μM)?
Its value is 7.48 ng/mL.

And the “TNF-alpha production [ng/ml] Average” value (CD4 T cells; 2.5 μM)?
Its value is 4.11 ng/mL.

What about the “CD25 expression [% positive cells] Average” value (CD4 T cells; 5 μM) of the same compound?
Its value is 79.53 % positive cells.

What about the “Cell Proliferation [Cell divisions/cell] Average” value (CD4 T cells; 5 μM) of the same compound?
The value was 1.40 Cell divisions/cell.

And the “IFN-gamma production [ng/ml] Average” value (CD4 T cells; 5 μM)?
The value was 2.22 ng/mL.

What about the “IL-2 production [ng/ml] Average” value (CD4 T cells; 5 μM) of the same compound?
The value was 11.11 ng/mL.

And the “TNF-alpha production [ng/ml] Average” value (CD4 T cells; 5 μM)?
The value was 5.47 ng/mL.

What about the “CD25 expression [% positive cells] Average” value (CD4 T cells; 10 μM) of the same compound?
Its value is 79.64 % positive cells.

What about the “Cell Proliferation [Cell divisions/cell] Average” value (CD4 T cells; 10 μM) of the same compound?
The value was 1.38 Cell divisions/cell.

What about the “IFN-gamma production [ng/ml] Average” value (CD4 T cells; 10 μM) of the same compound?
Its value is 2.81 ng/mL.

What about the “IL-2 production [ng/ml] Average” value (CD4 T cells; 10 μM) of the same compound?
The value was 13.62 ng/mL.

What about the “TNF-alpha production [ng/ml] Average” value (CD4 T cells; 10 μM) of the same compound?
The value was 7.19 ng/mL.

And the “CD25 expression [% positive cells] Average” value (CD4 T cells; 20 μM)?
The value was 75.14 % positive cells.

And the “Cell Proliferation [Cell divisions/cell] Average” value (CD4 T cells; 20 μM)?
Its value is 1.33 Cell divisions/cell.

What about the “IFN-gamma production [ng/ml] Average” value (CD4 T cells; 20 μM) of the same compound?
The value was 3.29 ng/mL.

And the “IL-2 production [ng/ml] Average” value (CD4 T cells; 20 μM)?
Its value is 15.11 ng/mL.

And the “TNF-alpha production [ng/ml] Average” value (CD4 T cells; 20 μM)?
Its value is 9.31 ng/mL.

And the “T cell proliferation and expression of the surface activation marker CD25” value (CD4 T cells; anti-CD3 and anti-CD28)?
The value was “enhanced”.

What about the “production of key cytokines (IL-2, IFN-gamma, TNF-alpha)” value (CD4 T cells; anti-CD3 and anti-CD28) of the same compound?
The value was “strongly enhanced”.

What about the IFN-gamma (NK cells; 0.03 μM) of the same compound?
Its IFN-gamma is 0.71 ng/mL.

What about the TNF-alpha (NK cells; 0.03 μM) of the same compound?
Its TNF-alpha is 0.04 ng/mL.

And the IFN-gamma (NK cells; 0.1 μM)?
Its IFN-gamma is 0.72 ng/mL.

And the TNF-alpha (NK cells; 0.1 μM)?
The TNF-alpha was 0.03 ng/mL.

And the IFN-gamma (NK cells; 0.3 μM)?
The IFN-gamma was 1.00 ng/mL.

What about the TNF-alpha (NK cells; 0.3 μM) of the same compound?
The TNF-alpha was 0.06 ng/mL.

What about the IFN-gamma (NK cells; 1 μM) of the same compound?
The IFN-gamma was 1.23 ng/mL.

What about the TNF-alpha (NK cells; 1 μM) of the same compound?
The TNF-alpha was 0.09 ng/mL.

And the IFN-gamma (NK cells; 3 μM)?
The IFN-gamma was 1.50 ng/mL.

What about the TNF-alpha (NK cells; 3 μM) of the same compound?
Its TNF-alpha is 0.10 ng/mL.

What about the IFN-gamma (NK cells; 10 μM) of the same compound?
The IFN-gamma was 1.40 ng/mL.

What about the TNF-alpha (NK cells; 10 μM) of the same compound?
Its TNF-alpha is 0.12 ng/mL.

What about the IFN-gamma (NK cells; 30 μM) of the same compound?
The IFN-gamma was 1.22 ng/mL.

What about the TNF-alpha (NK cells; 30 μM) of the same compound?
Its TNF-alpha is 0.14 ng/mL.

What about the “responsiveness of NK cells upon IL-2 activation (release of IFN-gamma and TNF-alpha)” value (NK cells; NK cells, IL-2) of the same compound?
Its value is “can directly enhance the responsiveness of NK cells upon IL-2 activation”.
